From ChEMBL document CHEMBL1201862, “PubChem BioAssay data set” (2004) come the findings set out here.

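Cultured in 96-well plates, cells were exposed to test compound for 48 hours across five concentrations. Here, GI50 denotes the concentration required for 50% inhibition of growth.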 Active and inactive are the calls of the source. Cut-off read from the data, not from the text of the source: active = GI50 up to about 1.1 µM and inactive = higher.

Among the test systems are A498; BT-549; HCC 2998; HL-60; Hs-578T; IGROV-1; MDA-MB-231; MDA-MB-435; NCI-H226; NCI-H460; OVCAR-4; OVCAR-8; PC-3; RXF 393; SF-268; SK-MEL-2; SK-MEL-5; SNB-19; SW-620; Malme-3M.
Common to all, as to assay: NCI anticancer screen, dose series, 48 h

For `CCN(CC)Cc1cc(Nc2c3ccccc3nc3c2[nH]c2ccccc23)cc(CN(CC)CC)c1O`, the GI50 with A498 was 1.53 µM (inactive); in the assay on BT-549 it was 1.41 µM (inactive); in the assay with HCC 2998, 0.836 µM (active); in the assay with HL-60 it was 2.86 µM (inactive); in the assay with Hs-578T, 2.15 µM (inactive); in the assay on IGROV-1, 0.861 µM (active). Further, the GI50 in the assay on MDA-MB-231 was 1.05 µM (active); with MDA-MB-435, 0.701 µM (active); with NCI-H226 it was 2.45 µM (inactive); in the assay on NCI-H460, 0.294 µM (active); with OVCAR-4, 0.468 µM (active); in the assay on OVCAR-8, 0.5 µM (active). Besides, the GI50 with PC-3 is 0.64 µM (active); in the assay on RXF 393, 0.28 µM (active); with SF-268, 0.813 µM (active); in the assay on SK-MEL-2, 1.62 µM (inactive); with SK-MEL-5, 1.6 µM (inactive); with SNB-19, 1.21 µM (inactive). The GI50 with SW-620 was 0.266 µM (active).

Regarding `N[C@H](C(=O)O)[C@@H]1CC(Cl)=NO1` [ACIVICIN], the GI50 was 6.84 µM (inactive) in the assay on A498; 43 µM (inactive) with BT-549; 8.99 µM (inactive) in the assay on HCC 2998; 3.44 µM (inactive) in the assay on HL-60; 3.62 µM (inactive) with Hs-578T; 0.698 µM (active) in the assay with IGROV-1. The GI50 in the assay on MDA-MB-231 is 72.6 µM (inactive); with MDA-MB-435, 3.9 µM (inactive); with Malme-3M, 4.26 µM (inactive); in the assay with NCI-H460 it was 0.452 µM (active); in the assay on OVCAR-4 it was 14.6 µM (inactive); with OVCAR-8, 2.18 µM (inactive). For the same compound, the GI50 is 1.48 µM (inactive) in the assay with PC-3; 7.62 µM (inactive) in the assay with RXF 393; 1.53 µM (inactive) in the assay with SF-268; 4.61 µM (inactive) in the assay on SK-MEL-2; 1.99 µM (inactive) in the assay on SK-MEL-5; 1.07 µM (active) in the assay on SW-620.

For `O=C1/C(=C\c2ccc(O)cc2)CCC/C1=C/c1ccc(Cl)c(Cl)c1`, the GI50 is 3.39 µM (inactive) with A498; 2.77 µM (inactive) in the assay on BT-549; 2.31 µM (inactive) in the assay on HCC 2998; 1.96 µM (inactive) in the assay with HL-60; 5.65 µM (inactive) with Hs-578T; 0.331 µM (active) with IGROV-1. Also, the GI50 with MDA-MB-231 is 3.38 µM (inactive); in the assay with MDA-MB-435, 3.15 µM (inactive); in the assay on Malme-3M, 5.3 µM (inactive); in the assay on NCI-H226 it was 3.96 µM (inactive); with OVCAR-4, 2.32 µM (inactive); in the assay on PC-3 it was 3.57 µM (inactive). The GI50 in the assay on RXF 393 is 2.38 µM (inactive); in the assay on SF-268, 3.35 µM (inactive); in the assay on SK-MEL-2, 18.6 µM (inactive); in the assay on SK-MEL-5 it was 7.11 µM (inactive); with SNB-19 it was 5.51 µM (inactive); with SW-620 it was 3.37 µM (inactive).

As for `CCC(C)C1NC(=O)C2CCCN2C(=O)C(CC2CO2)OC(=O)CCNC(=O)C(C)N(C)C(=O)C(C(C)C)N(C)C1=O` (configuration not stated), the GI50 in the assay on A498 is > 100 µM (inactive); in the assay with BT-549, < 0.0414 µM (active); with HCC 2998, 21.8 µM (inactive); with HL-60, < 0.0223 µM (active); in the assay on Hs-578T it was > 100 µM (inactive); in the assay with IGROV-1 it was 2.14 µM (inactive). Further, the GI50 in the assay with MDA-MB-231 was > 22.9 µM (inactive); in the assay with MDA-MB-435, 0.111 µM (active); in the assay on Malme-3M, 0.0142 µM (active); in the assay with NCI-H226, > 5.08 µM (inactive); in the assay on OVCAR-4, 3.11 µM (inactive); in the assay on OVCAR-8 it was 0.22 µM (active). Besides, the GI50 with PC-3 is 0.889 µM (active); with RXF 393, 0.0713 µM (active); with SK-MEL-2, < 0.0158 µM (active); with SK-MEL-5 it was < 0.0169 µM (active); with SNB-19, > 13.4 µM (inactive); in the assay with SW-620, 0.0478 µM (active).

For `N#Cc1c(-c2ccccc2)c(C=O)c(=O)n2c1[nH]c1ccccc12`, the GI50 in the assay with A498 was 26.1 µM (inactive); in the assay with BT-549 it was 39.1 µM (inactive); in the assay on HL-60, 56.9 µM (inactive); in the assay on Hs-578T, 31.3 µM (inactive); in the assay with IGROV-1, > 100 µM (inactive); in the assay on MDA-MB-231 it was 38.2 µM (inactive). The GI50 with MDA-MB-435 is 67.1 µM (inactive); in the assay on Malme-3M, > 100 µM (inactive); in the assay on NCI-H226, 55.6 µM (inactive); with NCI-H460, > 100 µM (inactive); in the assay on OVCAR-4 it was 20.5 µM (inactive); with OVCAR-8, > 100 µM (inactive). For the same compound, the GI50 is > 100 µM (inactive) with PC-3; 42.5 µM (inactive) with RXF 393; 65.9 µM (inactive) in the assay on SF-268; 33 µM (inactive) in the assay with SK-MEL-2; > 100 µM (inactive) with SK-MEL-5; 50.7 µM (inactive) in the assay with SNB-19. For the same compound, in the assay on SW-620, the GI50 is 42.6 µM (inactive).

With `CC(C)=CCC/C(=C/CC/C(=C\CCc1ccoc1)C(=O)O)C(=O)O`, the GI50 in the assay with A498, in the assay on BT-549, with HCC 2998, with HL-60, in the assay with Hs-578T and in the assay on IGROV-1 was > 100 µM (inactive) in each case. Besides, the GI50 with MDA-MB-231, in the assay with MDA-MB-435, in the assay with Malme-3M, in the assay on NCI-H226, in the assay with OVCAR-4 and in the assay on OVCAR-8 was > 100 µM (inactive) in each case. Further, the GI50 with PC-3, in the assay on RXF 393, with SF-268, with SK-MEL-2, in the assay on SK-MEL-5 and with SNB-19 was > 100 µM (inactive) in each case. The GI50 in the assay with SW-620 is > 100 µM (inactive).

Turning to `CCOC(=O)c1nc2ccccc2nc1NCc1cc(OC)c(OC)c(OC)c1`, the GI50 is 23.9 µM (inactive) in the assay on A498; 34.8 µM (inactive) with BT-549; 53.7 µM (inactive) with HCC 2998; 33.3 µM (inactive) in the assay with HL-60; 42.9 µM (inactive) in the assay with Hs-578T; 53.1 µM (inactive) with IGROV-1. For the same compound, the GI50 was 27.4 µM (inactive) in the assay with MDA-MB-231; 20.3 µM (inactive) in the assay with MDA-MB-435; 29.6 µM (inactive) in the assay on Malme-3M; 83 µM (inactive) in the assay with NCI-H226; 28.8 µM (inactive) in the assay with NCI-H460; 29.6 µM (inactive) with OVCAR-4. Besides, the GI50 was 58.1 µM (inactive) in the assay on OVCAR-8; 25.2 µM (inactive) in the assay on PC-3; 14.9 µM (inactive) in the assay on RXF 393; > 100 µM (inactive) in the assay on SF-268; 26.9 µM (inactive) with SK-MEL-5; 42.2 µM (inactive) in the assay on SW-620.

On to `COC(=O)c1c(C)cccc1/C=C1/Cc2c(C)cccc2C1=O`, for which the GI50 with A498 is 88.9 µM (inactive); in the assay on BT-549 it was 28.2 µM (inactive); in the assay with HCC 2998, > 100 µM (inactive); in the assay with HL-60, > 100 µM (inactive); in the assay on Hs-578T it was 32.6 µM (inactive); in the assay with IGROV-1 it was > 100 µM (inactive). The GI50 in the assay with MDA-MB-231 was > 100 µM (inactive); in the assay with MDA-MB-435, > 100 µM (inactive); in the assay with Malme-3M, > 100 µM (inactive); in the assay on NCI-H226 it was > 100 µM (inactive); in the assay with NCI-H460 it was 67.9 µM (inactive); with OVCAR-4 it was > 100 µM (inactive). The GI50 with OVCAR-8 was > 100 µM (inactive); with PC-3, > 100 µM (inactive); in the assay on RXF 393, 25.4 µM (inactive); in the assay on SF-268, > 100 µM (inactive); with SK-MEL-5, 9.93 µM (inactive); in the assay on SW-620 it was > 100 µM (inactive).
